Data on four molecules can be found in patent US20110165195A1 (priority 2007, published 2011).

Data set [1] relates to rat intestinal tract tissue. The following applies: in vivo; cited from earlier work.
In the next data set the test system is Caco-2 cell line. The following applies: cited from earlier work.
Data set [2] is described as follows: in vivo. Conditions: male, SD, rat, iv, 10 ug/kg.
A short description of data set [3]: in vivo. Conditions: male, SD, rat.
Data set [4] can be described thus: in vivo. Conditions: male, SD, rat. This is another data set of the same source.
Data set [5] can be described thus: in vivo. The following applies: male, rat.
Data set [6] can be described thus: in vivo. Conditions: male, SD, rat, sc, 10 ug/kg.
A short description of data set [7]: in vivo. The following applies: male, SD, rat. This is another data set of the same source.
A short description of data set [8]: in vivo. Conditions: male, SD, rat, iv, 10 ug/kg. The source holds these as a separate data set.
For data set [9] the following is noted: rat, in vivo.

Turning to `CCCCCCCCCC(=O)O` [capric acid], the “cytotoxicity and tissue damage” value was “exhibits cytotoxicity and causes tissue damage” in data set [1]; “exhibits cytotoxicity and causes tissue damage” with Caco-2 cell line.

One may read the AUC as concentration integrated over time. A low value points to less exposure. What is called Cmax is the peak of the concentration-time curve. Broadly, the bioavailability is dose-corrected exposure relative to a reference, in per cent. A higher bioavailability goes with much systemic uptake. On to `CC[C@H](C)[C@H](NC(=O)[C@H](CCC(=O)O)NC(=O)[C@H](CO)NC(=O)[C@@H](NC(=O)[C@@H](N)CO)C(C)C)C(=O)N[C@@H](CCC(N)=O)C(=O)N[C@@H](CC(C)C)C(=O)N[C@@H](CCSC)C(=O)N[C@@H](Cc1cnc[nH]1)C(=O)N[C@@H](CC(N)=O)C(=O)N[C@@H](CC(C)C)C(=O)NCC(=O)N[C@@H](CCCCN)C(=O)N[C@@H](Cc1cnc[nH]1)C(=O)N[C@@H](CC(C)C)C(=O)N[C@@H](CC(N)=O)C(=O)N[C@@H](CO)C(=O)N[C@@H](CCSC)C(=O)N[C@@H](CCC(=O)O)C(=O)N[C@@H](CCCN=C(N)N)C(=O)N[C@H](C(=O)N[C@@H](CCC(=O)O)C(=O)N[C@@H](Cc1c[nH]c2ccccc12)C(=O)N[C@@H](CC(C)C)C(=O)N[C@@H](CCCN=C(N)N)C(=O)N[C@@H](CCCCN)C(=O)N[C@@H](CCCCN)C(=O)N[C@@H](CC(C)C)C(=O)N[C@@H](CCC(N)=O)C(=O)N[C@@H](CC(=O)O)C(=O)N[C@H](C(=O)N[C@@H](Cc1cnc[nH]1)C(=O)N[C@@H](CC(N)=O)C(=O)N[C@@H](Cc1ccccc1)C(=O)O)C(C)C)C(C)C` [hPTH(1-34)], for which the AUC in the data set “in vivo [2]” was 3.48 ng·h/mL; in “in vivo [3]” it was 25.6 ng·h/mL; in “in vivo [4]” (inhaled or intranasal) it was 0.732 ng·h/mL; in the data set “in vivo [5]” (Wister) it was 0.538 ng·h/mL; in the data set “in vivo [6]”, 0.827 ng·h/mL. The Cmax is 31 ± 1.3 ng/mL in “in vivo [2]”; 27.8 ± 15.9 ng/mL in “in vivo [3]”; 0.67 ± 0.16 ng/mL in “in vivo [4]” (inhaled or intranasal); 0.93 ± 0.8 ng/mL in “in vivo [5]” (Wister); 1.07 ± 0.41 ng/mL in “in vivo [6]”. Besides, the bioavailability in “in vivo [3]” (iv) worked out at 14.6 ± 10.7%; in “in vivo [4]”, 0.3 ± 0.1%; in “in vivo [5]” (Wistar, iv), 0.4 ± 0.4%.

Take `CCCCCCCC(=O)OC[C@H](NC(=O)[C@H](CO)NC(=O)CN)C(=O)N[C@@H](Cc1ccccc1)C(=O)N[C@@H](CC(C)C)C(=O)N[C@@H](CO)C(=O)N1CCC[C@H]1C(=O)N[C@@H](CCC(=O)O)C(=O)N[C@@H](Cc1cnc[nH]1)C(=O)N[C@@H](CCC(N)=O)C(=O)N[C@@H](CCCNC(=N)N)C(=O)N[C@H](C(=O)N[C@@H](CCC(N)=O)C(=O)N[C@@H](CCC(N)=O)C(=O)N[C@@H](CCCNC(=N)N)C(=O)N[C@@H](CCCCN)C(=O)N[C@@H](CCC(=O)O)C(=O)N[C@@H](CO)C(=O)N[C@@H](CCCCN)C(=O)N[C@@H](CCCCN)C(=O)N1CCC[C@H]1C(=O)N1CCC[C@H]1C(=O)N[C@@H](C)C(=O)N[C@@H](CCCCN)C(=O)N[C@@H](CC(C)C)C(=O)N[C@@H](CCC(N)=O)C(=O)N1CCC[C@H]1C(=O)N[C@@H](CCCNC(=N)N)C(=O)O)C(C)C` [human ghrelin]: in the data set “in vivo [7]”, the AUC is 0.533 ng·h/mL, the highest concentration (Cmax) is 2.25 ± 2 ng/mL and the bioavailability amounted to 1.6 ± 1.4%. Besides, in “in vivo [8]”, the AUC is 3.43 ng·h/mL and the C0 is 40.7 ng/mL.

`CC[C@H](C)[C@H](NC(=O)[C@@H]1CCCN1C(=O)[C@@H](NC(=O)[C@@H](N)Cc1ccccc1)C(C)C)C(=O)N[C@@H](Cc1ccccc1)C(=O)N[C@H](C(=O)N[C@@H](Cc1ccc(O)cc1)C(=O)NCC(=O)N[C@@H](CCC(=O)O)C(=O)N[C@@H](CC(C)C)C(=O)N[C@@H](CCC(N)=O)C(=O)N[C@@H](CCCNC(=N)N)C(=O)N[C@@H](CCSC)C(=O)N[C@@H](CCC(N)=O)C(=O)N[C@@H](CCC(=O)O)C(=O)N[C@@H](CCCCN)C(=O)N[C@@H](CCC(=O)O)C(=O)N[C@@H](CCCNC(=N)N)C(=O)N[C@@H](CC(N)=O)C(=O)N[C@@H](CCCCN)C(=O)NCC(=O)N[C@@H](CCC(N)=O)C(=O)O)[C@@H](C)O` [human motilin]: the “BA of human motilin” value in [9] is given as 1.1 ± 0.7%.
